# Laboratory results: patent publication US7678810B2, “Thiazole derivative” (Taisho Pharmaceutical Co., Ltd, priority 2004, dated 2010)
# System: Smad2/3 phosphorylation caused by TGF-β1 stimulation
# Assay: Smad2/3 phosphorylation inhibitory activity test
# Format: cell-based
# Conditions: Homo sapiens; A549 cells; compound 2 hours before TGF-β1 1 ng/ml, 1 hour; anti-Smad2/3 immunoprecipitation, Western blotting
# Procedure: A549 cells were seeded to a plate, and cultured overnight in a Ham's F-12 medium supplemented with 10% FBS. This medium was replaced with the same medium containing the compounds or not containing the compounds, and after incubated another 2 hours, TGF-01 was added thereto so as to make its final concentration 1 ng/ml, and further incubated another 1 hour. After completion of incubation, the medium was removed, and the cells were washed with PBS and then lysed by a RIPA solution. The cell lysate solution was subjected to immunoprecipitation using anti-Smad2/3 antibody, and then Western blotting was performed. Using a rabbit anti-phosphorylated serine antibody as a primary antibody, a HRP-labeled anti-rabbit IgG antibody as a secondary antibody, and ECL Western blotting detection reagents as detection reagents, light emitting amounts were measured using Limi-Imager F1 (Roche Diagnostics) etc.
# Following the above described methods, the inhibitory activities of the respective compounds against Smad2/3 phosphorylation caused by TGF-β1 stimulation were measured, and IC50 values were calculated.
row,IC50 [nM],SMILES
1,80,Cc1csc(-c2nc(-c3ccc(C(N)=O)cc3)[nH]c2-c2ccc3ncsc3c2)n1 [Compound 50]
2,24,Cc1csc(-c2nc(C)[nH]c2-c2ccc3ncsc3c2)n1 [Compound 52]
3,45,CCCCc1nc(-c2nc(C)cs2)c(-c2ccc3ncsc3c2)[nH]1 [Compound 57]
4,31,Cc1csc(-c2nc(N)[nH]c2-c2ccc3ncsc3c2)n1 [Compound 68]
5,89,Cc1csc(-c2nc(C3CCC(=O)CC3)[nH]c2-c2ccc3ncsc3c2)n1 [Compound 80]
6,52,CCCC(O)CCc1nc(-c2nc(C)cs2)c(-c2ccc3ncsc3c2)[nH]1 (stereo not drawn) [Compound 81]
7,99,Cc1csc(-c2nc(C3CCOCC3)[nH]c2-c2ccc3ncsc3c2)n1 [Compound 83]
8,38,COCCCCc1nc(-c2nc(C)cs2)c(-c2ccc3ncsc3c2)[nH]1 [Compound 87]
9,32,CCCC(=O)NCc1nc(-c2nc(C)cs2)c(-c2ccc3ncsc3c2)[nH]1 [Compound 105]
10,67,COCC(=O)NCc1nc(-c2nc(C)cs2)c(-c2ccc3ncsc3c2)[nH]1 [Compound 124]
11,107,Cc1csc(-c2nc(CNC(=O)C3CCOCC3)[nH]c2-c2ccc3ncsc3c2)n1 [Compound 129]
12,89,CCCNC(=O)CCCCc1nc(-c2nc(C)cs2)c(-c2ccc3ncsc3c2)[nH]1 [Compound 171]
13,126,CCNC(=O)NCc1nc(-c2nc(C)cs2)c(-c2ccc3ncsc3c2)[nH]1 [Compound 175]
14,77,Cc1csc(-c2nc(CNC(=O)N(C)C)[nH]c2-c2ccc3ncsc3c2)n1 [Compound 176]
15,38,COC(=O)NCc1nc(-c2nc(C)cs2)c(-c2ccc3ncsc3c2)[nH]1 [Compound 186]
16,31,C#CCOC(=O)NCc1nc(-c2nc(C)cs2)c(-c2ccc3ncsc3c2)[nH]1 [Compound 191]
17,92,Cc1csc(-c2nc(CN3CCOC3=O)[nH]c2-c2ccc3ncsc3c2)n1 [Compound 197]
18,93,CCNC(=O)OCc1nc(-c2nc(C)cs2)c(-c2ccc3ncsc3c2)[nH]1 [Compound 198]
19,70,Cc1csc(-c2nc(COC(=O)N(C)C)[nH]c2-c2ccc3ncsc3c2)n1 [Compound 199]
20,42,CCCC(=O)CCc1nc(-c2nc(C)cs2)c(-c2ccc3ncsc3c2)[nH]1 [Compound 201]

# System: not given
# Assay: not given
# Conditions: not given
row,melting point,SMILES
1,223.5 to 224 °C,COCC(=O)NCc1nc(-c2nc(C)cs2)c(-c2ccc3ncsc3c2)[nH]1 [Compound 124]
2,197 to 197.5 °C,Cc1csc(-c2nc(CNC(=O)C3CCOCC3)[nH]c2-c2ccc3ncsc3c2)n1 [Compound 129]
3,196.5 to 197 °C,Cc1csc(-c2nc(CCC(=O)NC3CC3)[nH]c2-c2ccc3ncsc3c2)n1 [Compound 146]
4,201.5 to 202 °C,Cc1csc(-c2nc(CCC(=O)NC(C)(C)C)[nH]c2-c2ccc3ncsc3c2)n1 [Compound 147]
5,179 to 180 °C,Cc1csc(-c2nc(CCC(=O)N3CCCCC3)[nH]c2-c2ccc3ncsc3c2)n1 [Compound 148]
6,163.5 to 164 °C,Cc1csc(-c2nc(CCC(=O)NCCN(C)C)[nH]c2-c2ccc3ncsc3c2)n1 [Compound 149]
7,78.5 to 82.5 °C,Cc1csc(-c2nc(CCC(=O)NCCCN(C)C)[nH]c2-c2ccc3ncsc3c2)n1 [Compound 150]
8,114 to 119 °C,Cc1csc(-c2nc(CCC(=O)NCCN3CCCCC3)[nH]c2-c2ccc3ncsc3c2)n1 [Compound 151]
9,171 to 173 °C,Cc1csc(-c2nc(CCC(=O)NCCN3CCCC3)[nH]c2-c2ccc3ncsc3c2)n1 [Compound 152]
10,188 to 189 °C,Cc1csc(-c2nc(CCC(=O)NCCCN3CCN(C)CC3)[nH]c2-c2ccc3ncsc3c2)n1 [Compound 153]
11,201 to 201.5 °C,Cc1csc(-c2nc(CCC(=O)N3CCN(C)CC3)[nH]c2-c2ccc3ncsc3c2)n1 [Compound 155]
12,164.5 to 166 °C,Cc1csc(-c2nc(CCC(=O)N3CCN(CCN4CCOCC4)CC3)[nH]c2-c2ccc3ncsc3c2)n1 [Compound 157]
13,169.5 to 172 °C,Cc1csc(-c2nc(CCC(=O)N3CCN(CCN(C)C)CC3)[nH]c2-c2ccc3ncsc3c2)n1 [Compound 158]
14,216.5 to 218 °C,Cc1csc(-c2nc(CCC(=O)N3CCOCC3)[nH]c2-c2ccc3c(c2)OCO3)n1 [Compound 161]
15,144.5 to 145 °C,COCCCNC(=O)CCc1nc(-c2nc(C)cs2)c(-c2ccc3ncsc3c2)[nH]1 [Compound 164]
16,140 to 140.5 °C,COc1ccc(CNC(=O)CCCCc2nc(-c3nc(C)cs3)c(-c3ccc4ncsc4c3)[nH]2)cc1 [Compound 173]
17,179.5 to 182 °C,CCCNC(=O)NCc1nc(-c2nc(C)cs2)c(-c2ccc3ncsc3c2)[nH]1 [Compound 177]
18,178.5 to 180 °C,Cc1csc(-c2nc(CNC(=O)NC(C)C)[nH]c2-c2ccc3ncsc3c2)n1 [Compound 178]
19,190.5 to 191.5 °C,CCCCNC(=O)NCc1nc(-c2nc(C)cs2)c(-c2ccc3ncsc3c2)[nH]1 [Compound 179]
20,222.5 to 223 °C,CCN(CC)C(=O)NCc1nc(-c2nc(C)cs2)c(-c2ccc3ncsc3c2)[nH]1 [Compound 181]
21,199 to 201 °C,CCCCCNC(=O)NCc1nc(-c2nc(C)cs2)c(-c2ccc3ncsc3c2)[nH]1 [Compound 182]
22,185.5 to 188 °C,Cc1csc(-c2nc(CNC(=O)NC3CCCC3)[nH]c2-c2ccc3ncsc3c2)n1 [Compound 183]
23,205.5 to 206 °C,Cc1csc(-c2nc(CNC(=O)N3CCOCC3)[nH]c2-c2ccc3ncsc3c2)n1 [Compound 185]

row,melting point,SMILES
1,183 to 184 °C,CCOC(=O)NCc1nc(-c2nc(C)cs2)c(-c2ccc3ncsc3c2)[nH]1 [Compound 187]
2,202 to 204 °C (dec.),Cc1csc(-c2nc(CNC(=O)OCCCl)[nH]c2-c2ccc3ncsc3c2)n1 [Compound 188]
3,161 to 162 °C,CCCCOC(=O)NCc1nc(-c2nc(C)cs2)c(-c2ccc3ncsc3c2)[nH]1 [Compound 193]
4,142.5 to 144 °C,Cc1csc(-c2nc(CNC(=O)OCC(C)C)[nH]c2-c2ccc3ncsc3c2)n1 [Compound 194]
5,177.5 to 178.5 °C,CCCCCOC(=O)NCc1nc(-c2nc(C)cs2)c(-c2ccc3ncsc3c2)[nH]1 [Compound 195]
6,170.5 to 171.5 °C,Cc1csc(-c2nc(CNC(=O)OCC(C)(C)C)[nH]c2-c2ccc3ncsc3c2)n1 [Compound 196]
7,181.5 to 182 °C,Cc1csc(-c2nc(COC(=O)N(C)C)[nH]c2-c2ccc3ncsc3c2)n1 [Compound 199]
8,248 to 251 °C (dec.),N#Cc1ccc(-c2nc(-c3nccs3)c(-c3ccccn3)n2O)cc1 [Compound 202]
9,131.5 to 132.5 °C,Cc1csc(C(=O)C(=O)c2ccc3c(c2)OCO3)n1 [Compound 203]
10,75 to 77 °C,Cc1csc(C(=O)C(=O)c2ccc(F)cc2)n1 [Compound 206]
11,111.5 to 112 °C,Cc1csc(C#Cc2ccc3c(c2)OCO3)n1 [Compound 217]
12,82 to 83 °C,Cc1csc(C#Cc2ccc(F)cc2)n1 [Compound 219]
13,273 to 275 °C (dec.),Cc1csc(-c2nc(C3CCC(=O)N3)[nH]c2-c2ccc3ncsc3c2)n1 (stereo not drawn) [Compound 229]
14,263 to 268 °C (dec.),Cc1csc(-c2nc(C3CCC(=O)N3)[nH]c2-c2ccc3ncsc3c2)n1 (stereo not drawn) [Compound 230]
15,144 to 145 °C,COc1ccc(Cn2c(C)nc(-c3nc(C)cs3)c2-c2ccc3ncsc3c2)cc1 [Compound 231]
16,215.5 to 218.5 °C,Cc1csc(-c2nc(C)n(Cc3ccc(O)cc3)c2-c2ccc3ncsc3c2)n1 [Compound 232]
17,146.5 to 148 °C,Cc1csc(-c2nc(C)n(Cc3ccc(OCCN(C)C)cc3)c2-c2ccc3ncsc3c2)n1 [Compound 233]
18,129.5 to 131 °C,COCCOc1ccc(Cn2c(C)nc(-c3nc(C)cs3)c2-c2ccc3ncsc3c2)cc1 [Compound 234]
19,158 to 159.5 °C,CNC(=O)OCc1nc(-c2nc(C)cs2)c(-c2ccc3ncsc3c2)[nH]1 [Compound 235]
20,239 to 239.5 °C,CNC(=O)NCc1nc(-c2nc(C)cs2)c(-c2ccc3ncsc3c2)[nH]1 [Compound 238]
21,220.5 to 222 °C,Cc1csc(-c2nc(CNC(=O)C3CCCCO3)[nH]c2-c2ccc3ncsc3c2)n1 (stereo not drawn) [Compound 241]
22,190.5 to 192 °C,Cc1nc(-c2nc(C(F)(F)F)cs2)c(-c2ccc3ncsc3c2)[nH]1 [Compound 244]
23,163.5 to 164.5 °C,O=C(C(=O)c1nc(C(F)(F)F)cs1)c1ccc2ncsc2c1 [Compound 251]
